This passage reports inhibition results from article PMC6704710, “Preclinical evaluation of 3D185, a novel potent inhibitor of FGFR1/2/3 and CSF-1R, in FGFR-dependent and macrophage-dominant cancer models” (Journal of Experimental & Clinical Cancer Research : CR, 2019).

Broadly, the inhibition is the drop in the measured response relative to a control, in per cent.

Common to all, as to assay: Eurofins kinase panel
What all share (type): biochemical
Holding throughout (conditions): read-out: Inhibition rate (%)

In one assay the target is T1, IRAK4(h) (Homo sapiens, UniProt Q9NWZ3).
T1 construct: purchased Eurofins (KinaseProfiler)
T1 sequence (Q9NWZ3 1-460): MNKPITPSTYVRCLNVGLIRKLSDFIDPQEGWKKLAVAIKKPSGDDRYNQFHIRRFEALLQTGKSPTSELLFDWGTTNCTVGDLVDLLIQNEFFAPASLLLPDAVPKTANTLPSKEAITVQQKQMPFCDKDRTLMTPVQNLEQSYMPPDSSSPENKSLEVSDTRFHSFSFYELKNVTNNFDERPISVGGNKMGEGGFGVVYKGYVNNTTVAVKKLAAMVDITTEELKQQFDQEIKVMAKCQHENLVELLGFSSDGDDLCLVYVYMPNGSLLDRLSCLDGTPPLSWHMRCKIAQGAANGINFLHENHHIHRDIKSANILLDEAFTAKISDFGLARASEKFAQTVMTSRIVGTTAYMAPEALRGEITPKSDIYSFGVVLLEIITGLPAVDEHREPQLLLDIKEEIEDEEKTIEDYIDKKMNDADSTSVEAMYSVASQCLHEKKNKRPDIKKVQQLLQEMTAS
As to the method:
(§1) Active FGFR1–4, VEGFR1, KDR, VEGFR3, PDGFRα and PDGFRβ proteins were purchased from Eurofins (Fremont, United States), and kinase activity was assessed using ELISA, as previously reported. […]. Increasing concentrations of ATP were diluted for the kinase reaction in the ATP competition assay. CSF-1R kinase activity was analyzed using the Z’-LYTE™ Kinase Assay Kit (Thermo Fisher, United States). The assay formats are described in the SelectScreen Kinase Profiling Service Zlyte protocol. IC50 values were calculated by dose-response curve fitting using Prism (Graph Pad).

The next assay addresses T2, Met(Y1248D)(h) (Homo sapiens, UniProt P08581, Y1230D).
T2 construct: purchased Eurofins (KinaseProfiler)
As to the method: as §1

For another assay, the target named is T3, BRK(h) (Homo sapiens, UniProt Q13882).
T3 construct: purchased Eurofins (KinaseProfiler)
T3 sequence (Q13882 whole entry): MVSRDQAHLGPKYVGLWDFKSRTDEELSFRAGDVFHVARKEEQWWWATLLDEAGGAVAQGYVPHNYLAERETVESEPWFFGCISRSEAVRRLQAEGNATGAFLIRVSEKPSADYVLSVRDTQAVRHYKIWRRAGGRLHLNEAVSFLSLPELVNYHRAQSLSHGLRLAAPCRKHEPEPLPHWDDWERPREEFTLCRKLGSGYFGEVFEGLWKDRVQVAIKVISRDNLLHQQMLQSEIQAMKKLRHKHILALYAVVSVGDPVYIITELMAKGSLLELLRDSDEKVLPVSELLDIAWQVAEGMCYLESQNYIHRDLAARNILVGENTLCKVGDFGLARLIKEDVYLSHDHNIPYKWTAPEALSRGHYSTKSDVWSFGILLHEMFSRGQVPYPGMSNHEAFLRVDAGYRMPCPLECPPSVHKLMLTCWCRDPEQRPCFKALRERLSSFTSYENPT
As to the method:
as §1

The next assay addresses T4, DDR2(h) (Homo sapiens, UniProt Q16832).
T4 construct: purchased Eurofins (KinaseProfiler)
T4 sequence (Q16832 22-855): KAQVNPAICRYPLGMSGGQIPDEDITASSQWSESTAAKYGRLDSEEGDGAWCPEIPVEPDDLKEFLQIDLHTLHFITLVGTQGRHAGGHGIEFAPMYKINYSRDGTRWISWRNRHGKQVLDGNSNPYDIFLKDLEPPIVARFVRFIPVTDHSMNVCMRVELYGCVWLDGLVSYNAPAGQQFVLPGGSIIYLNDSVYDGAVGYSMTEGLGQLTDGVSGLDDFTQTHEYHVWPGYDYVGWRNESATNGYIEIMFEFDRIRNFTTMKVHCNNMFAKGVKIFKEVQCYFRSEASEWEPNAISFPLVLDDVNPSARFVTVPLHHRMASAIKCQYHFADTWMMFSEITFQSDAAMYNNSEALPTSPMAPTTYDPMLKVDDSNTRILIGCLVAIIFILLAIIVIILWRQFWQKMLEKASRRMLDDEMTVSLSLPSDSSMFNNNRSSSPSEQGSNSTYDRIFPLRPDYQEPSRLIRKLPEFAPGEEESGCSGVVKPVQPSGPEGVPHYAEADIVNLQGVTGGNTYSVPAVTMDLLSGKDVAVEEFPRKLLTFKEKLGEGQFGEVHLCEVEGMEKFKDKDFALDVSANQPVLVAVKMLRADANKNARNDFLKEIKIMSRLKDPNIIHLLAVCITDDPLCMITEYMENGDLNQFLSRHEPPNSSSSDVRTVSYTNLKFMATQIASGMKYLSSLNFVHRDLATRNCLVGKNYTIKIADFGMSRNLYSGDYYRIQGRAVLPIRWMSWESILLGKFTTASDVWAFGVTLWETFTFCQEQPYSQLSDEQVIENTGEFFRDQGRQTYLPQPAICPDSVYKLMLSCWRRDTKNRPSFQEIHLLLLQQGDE
As for the experimental part: as §1

Another assay deals with T5, CaMKIIβ(h) (Homo sapiens, UniProt Q13554).
T5 construct: purchased Eurofins (KinaseProfiler)
T5 sequence (Q13554 whole entry): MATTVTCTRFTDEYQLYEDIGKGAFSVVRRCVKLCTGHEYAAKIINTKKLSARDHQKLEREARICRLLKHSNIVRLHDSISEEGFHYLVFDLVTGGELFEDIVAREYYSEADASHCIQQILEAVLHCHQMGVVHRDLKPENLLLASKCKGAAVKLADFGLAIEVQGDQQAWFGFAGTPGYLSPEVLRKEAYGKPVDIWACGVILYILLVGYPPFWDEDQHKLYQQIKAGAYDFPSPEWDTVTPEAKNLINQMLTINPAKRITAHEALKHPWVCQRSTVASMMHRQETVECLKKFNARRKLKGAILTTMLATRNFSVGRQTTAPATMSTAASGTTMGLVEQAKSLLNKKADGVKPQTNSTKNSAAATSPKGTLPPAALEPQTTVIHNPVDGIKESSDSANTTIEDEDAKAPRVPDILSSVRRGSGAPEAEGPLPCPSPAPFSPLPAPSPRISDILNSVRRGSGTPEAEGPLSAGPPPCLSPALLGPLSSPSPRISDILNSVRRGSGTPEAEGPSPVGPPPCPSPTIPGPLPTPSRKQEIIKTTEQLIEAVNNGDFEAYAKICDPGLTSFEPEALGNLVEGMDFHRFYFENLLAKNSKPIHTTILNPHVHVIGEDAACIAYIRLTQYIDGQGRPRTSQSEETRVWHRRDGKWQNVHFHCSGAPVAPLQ
As to the method:
as §1

A further assay has as its target T6, Flt3(D835Y)(h) (Homo sapiens, UniProt P36888, D835Y).
T6 construct: purchased Eurofins (KinaseProfiler)
T6 sequence (P36888 27-993 D835Y): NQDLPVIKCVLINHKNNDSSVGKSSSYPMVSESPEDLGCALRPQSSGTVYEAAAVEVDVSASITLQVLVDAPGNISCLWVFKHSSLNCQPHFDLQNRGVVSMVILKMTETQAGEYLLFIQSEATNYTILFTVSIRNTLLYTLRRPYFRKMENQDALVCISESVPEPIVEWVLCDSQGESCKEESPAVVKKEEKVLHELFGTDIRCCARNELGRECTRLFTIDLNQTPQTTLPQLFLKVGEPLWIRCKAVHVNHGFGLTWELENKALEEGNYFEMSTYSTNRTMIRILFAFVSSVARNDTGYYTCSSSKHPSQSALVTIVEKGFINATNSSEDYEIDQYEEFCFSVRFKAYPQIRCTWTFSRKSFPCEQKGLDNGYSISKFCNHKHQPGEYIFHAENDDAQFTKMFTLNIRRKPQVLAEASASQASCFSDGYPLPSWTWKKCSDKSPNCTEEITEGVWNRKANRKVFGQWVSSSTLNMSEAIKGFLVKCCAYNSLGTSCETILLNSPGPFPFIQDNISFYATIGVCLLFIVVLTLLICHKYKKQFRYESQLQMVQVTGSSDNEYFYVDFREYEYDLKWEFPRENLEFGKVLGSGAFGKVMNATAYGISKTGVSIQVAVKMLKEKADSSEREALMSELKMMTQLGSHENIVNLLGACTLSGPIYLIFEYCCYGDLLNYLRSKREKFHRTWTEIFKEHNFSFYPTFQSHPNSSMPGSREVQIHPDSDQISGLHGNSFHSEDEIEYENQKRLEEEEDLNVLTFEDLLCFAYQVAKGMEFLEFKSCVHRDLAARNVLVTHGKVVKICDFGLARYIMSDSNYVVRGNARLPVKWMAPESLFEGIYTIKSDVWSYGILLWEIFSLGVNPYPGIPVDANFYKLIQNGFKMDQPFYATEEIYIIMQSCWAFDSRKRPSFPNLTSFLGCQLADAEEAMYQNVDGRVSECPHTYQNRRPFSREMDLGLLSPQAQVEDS
As for the experimental part: as §1

Another assay deals with T7, PTK5(h) (Homo sapiens, UniProt P42685).
T7 construct: purchased Eurofins (KinaseProfiler)
T7 sequence (P42685 whole entry): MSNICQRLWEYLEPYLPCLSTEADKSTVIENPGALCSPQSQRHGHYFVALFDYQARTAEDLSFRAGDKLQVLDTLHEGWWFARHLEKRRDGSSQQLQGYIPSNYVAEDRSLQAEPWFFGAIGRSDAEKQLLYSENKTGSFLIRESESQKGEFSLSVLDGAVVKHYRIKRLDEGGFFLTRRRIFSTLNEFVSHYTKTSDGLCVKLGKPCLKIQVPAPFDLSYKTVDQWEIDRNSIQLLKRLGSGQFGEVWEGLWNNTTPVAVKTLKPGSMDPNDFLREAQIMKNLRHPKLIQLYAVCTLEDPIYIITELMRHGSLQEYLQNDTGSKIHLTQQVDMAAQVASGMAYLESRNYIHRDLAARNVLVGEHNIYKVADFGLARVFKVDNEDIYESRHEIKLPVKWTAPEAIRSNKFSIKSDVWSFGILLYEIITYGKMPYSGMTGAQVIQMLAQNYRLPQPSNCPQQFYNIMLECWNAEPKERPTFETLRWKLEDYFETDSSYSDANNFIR
As for the experimental part:
as §1

T2 sequence (P08581 956-1390 Y1230D limits assumed): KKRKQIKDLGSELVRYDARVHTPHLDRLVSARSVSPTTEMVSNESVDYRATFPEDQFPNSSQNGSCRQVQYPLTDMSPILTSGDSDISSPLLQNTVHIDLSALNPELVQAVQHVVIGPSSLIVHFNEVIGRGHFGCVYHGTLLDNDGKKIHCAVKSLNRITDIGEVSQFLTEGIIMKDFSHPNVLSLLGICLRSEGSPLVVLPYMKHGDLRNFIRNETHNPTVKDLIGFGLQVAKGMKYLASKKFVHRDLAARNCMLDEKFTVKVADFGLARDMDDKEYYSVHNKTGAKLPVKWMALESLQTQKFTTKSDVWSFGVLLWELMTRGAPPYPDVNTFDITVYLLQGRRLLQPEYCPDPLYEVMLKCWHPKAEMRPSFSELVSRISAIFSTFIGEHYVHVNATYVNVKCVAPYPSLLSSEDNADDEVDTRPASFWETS

For the molecule `COc1cc(OC)c(Cl)c(-c2ccc3c(NC(=O)c4ccc(N5CCNC(C)(C)C5)cc4)n[nH]c3n2)c1Cl` [3D185], the inhibition at 0.01 µM is -2% on IRAK4(h) (10 nM); -12% on Met(Y1248D)(h) (10 nM); -5% on BRK(h) (10 nM); 0% on DDR2(h) (10 nM); -1% on CaMKIIβ(h) (10 nM); -1% on Flt3(D835Y)(h) (10 nM). Besides, the inhibition at 0.01 µM at PTK5(h) (10 nM) stood at 19%. The inhibition at 0.1 µM is -2% on IRAK4(h) (100 nM); -1% on Met(Y1248D)(h) (100 nM); 7% at BRK(h) (100 nM); 7% on DDR2(h) (100 nM); -3% at CaMKIIβ(h) (100 nM); -6% on Flt3(D835Y)(h) (100 nM). The inhibition at 0.1 µM at PTK5(h) (100 nM) was found to be 64%. In addition, the inhibition at 1 µM was -4% at IRAK4(h) (1000 nM); 18% on Met(Y1248D)(h) (1000 nM); 46% at BRK(h) (1000 nM); 54% on DDR2(h) (1000 nM); -4% on CaMKIIβ(h) (1000 nM); 5% at Flt3(D835Y)(h) (1000 nM). Besides, the inhibition at 1 µM at PTK5(h) (1000 nM) was determined as 91%.
